Results as given in US9210927B2, “Pesticidal compositions and processes related thereto” (Dow AgroSciences LLC, priority 2013, dated 2015).

Legend:
Type in all cases: in vivo
BAW (Spodoptera exigua) = assay: Bioassays on Beet Armyworm (BAW), 128-well diet tray assay; details: Spodoptera exigua, 168 h, read-out: BAW Rating
Procedure, shortened: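 Second-instar larvae (one to five per well) placed on artificial diet treated with 50 μg/cm^2 compound in 90:10 acetone-water, eight wells per compound. Held covered at 25° C., 14:10 light-dark for five to seven days; percent mortality averaged across wells.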

GPA (Myzus persicae) = assay: Bioassays on Green Peach Aphid (GPA), foliar spray on cabbage seedlings; details: 72 h, corrected % control (Abbott), 200 ppm spray on cabbage seedlings, three days, read-out: GPA Rating
Description: Bioassays on Green Peach Aphid (“GPA”) (Myzus persicae) Certain molecules disclosed in this document were tested against GPA using procedures described in the following example. In the reporting of the results, the “GPA Rating Table” was used (See Table Section). Cabbage seedlings grown in 3-inch pots, with 2-3 small (3-5 cm) true leaves, were used as test substrate. The seedlings were infested with 20-50 GPA (wingless adult and nymph stages) one day prior to chemical application. Four pots with individual seedlings were used for each treatment. Test compounds (2 mg) were dissolved in 2 mL of acetone/MeOH (1:1) solvent, forming stock solutions of 1000 ppm test compound. The stock solutions were diluted 5× with 0.025% Tween 20 in H2O to obtain the solution at 200 ppm test compound. A hand-held aspirator-type sprayer was used for spraying a solution to both sides of […] leaves until runoff. Reference plants (solvent check) were sprayed with the diluent only containing 20% by volume of acetone/MeOH (1:1) solvent. Treated plants were held in a holding room for three days at approximately 25° C. and ambient relative humidity (RH) prior to grading. Evaluation was conducted by counting the number of live aphids per plant under a microscope. Percent Control was measured by using Abbott's correction formula (W. S. Abbott, “A Method of Computing the Effectiveness of an Insecticide” J. Econ. Entomol. 18 (1925), pp. 265-267) as follows. Corrected % Control=100*(X−Y)/X • where • X=No. of live aphids on solvent check plants and • Y=No. of live aphids on treated plants The results are indicated in the table entitled “Table 3: Assay Results” (See Table Section).

CEW (Helicoverpa zea) = assay: Bioassays on Corn Earworm (CEW), 128-well diet tray assay; details: Helicoverpa zea, 168 h; percent mortality, second instar larvae, 50 μg/cm^2 on artificial diet, five to seven days, 25° C.; read-out: CEW Rating
Procedure, shortened: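 Second-instar larvae (one to five per well) placed on artificial diet treated with 50 μg/cm^2 compound in 90:10 acetone-water and dried, eight wells per compound. Held 25 °C, 14:10 light-dark, five to seven days; percent mortality scored per well and averaged.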

Compound | pest or weed control at 50 µg/cm2 (BAW (Spodoptera exigua)) [%] | pest or weed control at 200 ppm (GPA (Myzus persicae)) [%] | pest or weed control at 50 µg/cm2 (CEW (Helicoverpa zea)) [%]
Cc1cc(/C=C/C(c2cc(Cl)c(F)c(Cl)c2)C(F)(F)F)ccc1C(=O)NC1CCOCC1 (stereo not drawn) [AC52] | 50 to 100 | 0 to 80 | 50 to 100
Cc1cc(/C=C/C(c2cc(Cl)c(F)c(Cl)c2)C(F)(F)F)ccc1C(=O)NCc1ccc(Cl)cn1 (stereo not drawn) [AC53] | 50 to 100 | 0 to 80 | 50 to 100
Cc1cc(/C=C/C(c2cc(Cl)c(F)c(Cl)c2)C(F)(F)F)ccc1C(=O)NCc1ccnc(Cl)c1 (stereo not drawn) [AC54] | 50 to 100 | 0 to 80 | 50 to 100
CC(C)(C)OC(=O)CNC(=O)c1ccc(/C=C/C(c2cc(Cl)c(Cl)c(Cl)c2)C(F)(F)F)cc1Br (stereo not drawn) [AC58] | 50 to 100 | 0 to 80 | 50 to 100
Cc1cc(/C=C/C(c2cc(Cl)cc(Cl)c2)C(F)(F)F)ccc1C(=O)Nc1ccc(Cl)nc1 (stereo not drawn) [AC59] | 50 to 100 | 0 to 80 | 50 to 100
O=C(NC1CSC1)c1ccc(/C=C/C(c2cc(Cl)cc(Cl)c2)C(F)(F)F)cc1F (stereo not drawn) [AC61] | 50 to 100 | 0 to 80 | 50 to 100
O=C(NCc1ccc(Cl)nc1)c1ccc(/C=C/C(c2cc(Cl)c(F)c(Cl)c2)C(F)(F)F)cc1Br (stereo not drawn) [AC63] | 50 to 100 | 0 to 80 | 50 to 100
O=C(CNC(=O)c1ccc(/C=C/C(c2cc(Cl)c(Cl)c(Cl)c2)C(F)(F)F)cc1Cl)NCC(F)(F)F (stereo not drawn) [AC64, (E)-2-Chloro-N-(2-oxo-2-((2,2,2-trifluoroethyl)amino)ethyl)-4-(4,4,4-trifluoro-3-(3,4,5-trichlorophenyl)but-1-en-1-yl)benzamide] | 50 to 100 | 0 to 80 | 50 to 100
O=C(NCc1ccc(Cl)nc1)c1ccc(/C=C/C(c2cc(Cl)c(F)c(Cl)c2)C(F)(F)F)cc1F (stereo not drawn) [AC65] | 50 to 100 | 0 to 80 | 50 to 100
O=C(CNC(=O)c1ccc(/C=C/C(c2cc(Cl)c(Cl)c(Cl)c2)C(F)(F)F)cc1Br)NCC(F)(F)F (stereo not drawn) [AC66] | 50 to 100 | 0 to 80 | 50 to 100
O=C(NC1CSC1)c1ccc(/C=C/C(c2cc(Cl)c(F)c(Cl)c2)C(F)(F)F)cc1F (stereo not drawn) [AC67] | 50 to 100 | 0 to 80 | 50 to 100
Cc1cc(/C=C/C(c2cc(Cl)c(F)c(Cl)c2)C(F)(F)F)ccc1C(=O)NCC(=O)NCC(F)(F)F (stereo not drawn) [AC69] | 50 to 100 | 80 to 100 | 50 to 100
COc1cc(/C=C/C(c2cc(Cl)c(F)c(Cl)c2)C(F)(F)F)ccc1C(=O)NC1CSC1 (stereo not drawn) [AC71] | 50 to 100 | 0 to 80 | 50 to 100
CCc1cc(/C=C/C(c2cc(Cl)c(F)c(Cl)c2)C(F)(F)F)ccc1C(=O)NCc1ccc(Cl)nc1 (stereo not drawn) [AC72] | 50 to 100 | 0 to 80 | 50 to 100
O=C(NCc1ccc(C(F)(F)F)nc1)c1ccc(/C=C/C(c2cc(Cl)c(Cl)c(Cl)c2)C(F)(F)F)cc1Br (stereo not drawn) [AC75] | 50 to 100 | 0 to 80 | 50 to 100
Cc1cc(/C=C/C(c2cc(Cl)c(F)c(Cl)c2)C(F)(F)F)ccc1C(=O)NCc1cc(Cl)ccn1 (stereo not drawn) [AC77] | 50 to 100 | 0 to 80 | 50 to 100
Cc1cc(/C=C/C(c2cc(Cl)c(Cl)c(Cl)c2)C(F)(F)F)ccc1C(=O)NCC(=O)NCC(F)(F)F (stereo not drawn) [AC78] | 50 to 100 | 80 to 100 | 50 to 100
